# In patent US11000710B2, “Composition and method for the generation of chlorine dioxide from the oxidative consumption of biomolecules” (priority 2009, dated 2021):
# Assay: Level of HClO2 and ClO2^• producible from ClO2^− as a function of pH
# Assay type: physicochemical
Compound,"total ClO2^• producible, maximum percentage of total oxyhalogen oxidant (pH 4.50)","total ClO2^• producible, maximum percentage of total oxyhalogen oxidant (pH 7.00)","level of HClO2 generated, of total available oxyhalogen oxidant (pH 4.50)","level of HClO2 generated, of total available oxyhalogen oxidant (pH 7.00)"
"[O][Cl+][O-] [ClO2^•, chlorine dioxide]",≤ 0.32%,≤ 0.0010%,–,–
[O-][Cl+]O [HClO2],–,–,0.64%,0.0020%
